Like-named read-outs stand apart in the source and are kept apart here.
Columns and labels:
[1] = system: IL-1β; test: PBMC assay: inhibition of IL-1β release after LPS stimulation (MSD); type: cell-based; details: human PBMCs, 100 ng/ml LPS for 6 hrs, MSD, 96 well plates, read-out: IL1β IC50
Outline: (§1)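 Cryopreserved human PBMCs (7.5×10^4/well) in RPMI/10% FBS were preincubated with serially diluted compound for 30 min at 37 °C, then stimulated with 100 ng/ml LPS for 6 h. Supernatant IL-1β and TNF measured by MSD. IC50 derived for IL-1β, EC50 for TNF.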

[2] = system: TNF; test: PBMC assay: TNF cytokine levels after LPS stimulation (MSD); type: cell-based; details: human PBMCs, 100 ng/ml LPS for 6 hrs
Outline: as §1

Compound	IC50 ([1]; Homo sapiens, PBMC, 6 h) [µM]	EC50 ([2]; Homo sapiens, PBMC, 6 h) [µM]	IC50 [1] [µM]	EC50 [2] [µM]
CC(C)c1nn(CC(=O)Nc2cc(C(F)F)[nH]n2)c(=O)c2ccc(C(F)(F)F)cc12 [Final Cpd X39]	0.347	12.6	–	–
Cc1cnc2ccc(NC(=O)Cn3nc(C(C)C)c4cc(C(F)(F)F)ccc4c3=O)cn12 [Final Cpd X79]	0.865	> 20	–	–
C[C@]1(O)C[C@@H](NC(=O)Cn2nc(C3(F)CC3)c3cc(C(F)(F)F)ccc3c2=O)C1 [Final Cpd X134]	3.41	> 20	–	–
CC(C)c1nn(CC(=O)N[C@H]2C[C@](O)(C(F)(F)F)C2)c(=O)c2ccc(C(F)(F)F)cc12 [Final Cpd X65]	–	–	0.668	> 20
Cc1c(NC(=O)Cn2nc(C(C)C)c3cc(C(F)(F)F)ccc3c2=O)ccc2nccn12 [Final Cpd X74]	0.804	> 20	–	–
CC(C)c1nn(CC(=O)NC2CCc3nncn3C2)c(=O)c2ccc(C(F)(F)F)cc12 (stereo not drawn) [Final Cpd X89]	0.924	> 20	–	–
CC(C)c1nn(CC(=O)Nc2ccc3nncn3n2)c(=O)c2c(O)cc(C(F)(F)F)cc12 [Final Cpd X82]	0.888	12.9	–	–
CCc1ccc2c(=O)n(CC(=O)N[C@H]3C[C@@](C)(O)C3)nc(CC)c2c1 [Final Cpd 22]	0.34	> 10	–	–
CCc1ccc2c(=O)n(CC(=O)N[C@H]3CC[C@H](O)CC3)nc(CC)c2c1 [Final Cpd 29]	3.59	> 10	–	–
C[C@]1(O)C[C@@H](NC(=O)Cn2nc(C(F)F)c3cc(Br)ccc3c2=O)C1 [X-1020]	0.133	> 20	–	–
CC(C)c1nn(CC(=O)Nc2cn3cnnc3cn2)c(=O)c2ccc(C(C)(F)F)cc12 [X-1085]	0.143	> 20	–	–
COC1(c2nn(CC(=O)Nc3ccc4nncn4c3)c(=O)c3ccc(C(F)(F)F)cc23)CC1 [Final Cpd X158]	9.99	> 20	–	–
CC(C)c1nn(CC(=O)Nc2ccc3nncn3c2)c(=O)c2ccc(C3CC3)cc12 [Final Cpd 31]	0.103	13.6	–	–
CC(C)c1nn(CC(=O)Nc2ccc3nn(C)nc3c2)c(=O)c2ccc(C(F)(F)F)cc12 [Final Cpd X169]	> 20	> 20	–	–
CCc1nn(CC(=O)Nc2ccc3nncn3c2)c(=O)c2ccc(C3CC3)cc12 [Final Cpd 3]	0.124	14.9	–	–
CCc1nn(CC(=O)N[C@H]2CC[C@H](O)CC2)c(=O)c2ccc(C)cc12 [Final Cpd 26, trans-2-(6-methyl-4-ethyl-1-oxo-phthalazin-2-yl)-N-(4-hydroxycyclohexyl)acetamide]	> 10	> 10	–	–
CC(C)c1nn(CC(=O)Nc2ccnnc2)c(=O)c2ccc(C(C)(F)F)cc12 [X-1064]	0.533	18.9	–	–
CC(C)c1nn(CC(=O)N[C@H]2C[C@@](C)(O)C2)c(=O)c2ccc(C(F)(F)F)c(F)c12 [Final Cpd X17]	0.147	> 20	–	–
Cc1cn2nc(NC(=O)Cn3nc(C(C)C)c4cc(C(F)(F)F)ccc4c3=O)ccc2n1 [Final Cpd X53]	0.444	> 20	–	–
CC[C@H](C)c1nn(CC(=O)Nc2ccc3nncn3c2)c(=O)c2ccc(C(F)(F)F)cc12 (single isomer, unassigned) [Final Cpd X43]	0.374	> 20	–	–
O=C(Cn1nc(C2CC2)c2cc(Cl)ccc2c1=O)Nc1ccc2nncn2n1 [X-1002]	0.453	> 20	–	–
CC(C)(F)c1nn(CC(=O)N[C@H]2C[C@@](C)(O)C2)c(=O)c2ccc(C(F)(F)F)cc12 [Final Cpd X145]	4.99	> 20	–	–
CC(C)c1nn(CC(=O)N[C@@H]2COC[C@H](O)C2)c(=O)c2ccc(C(F)(F)F)cc12 (mixture of isomers) [Final Cpd X157]	9.81	> 20	–	–
CC(C)c1nn(CC(=O)Nc2ccc3nccn3n2)c(=O)c2ccc(C(C)(F)F)cc12 [X-1006]	0.128	4.47	–	–
CC(C)c1nn(CC(=O)N[C@H]2C[C@@](C)(O)C2)c(=O)c2ccc(OCC(F)(F)F)cc12 [X-1039]	13	> 20	–	–
Cc1cc(NC(=O)Cn2nc(C(C)C)c3cc(C(F)(F)F)ccc3c2=O)cn2ccnc12 [Final Cpd X92]	0.97	> 20	–	–
CCC(C)c1nn(CC(=O)Nc2ccc3nncn3c2)c(=O)c2ccc(C(F)(F)F)cc12 (stereo not drawn) [Final Cpd X24]	0.175	> 20	–	–
Cc1ncc2ccc(NC(=O)Cn3nc(C(C)C)c4cc(C(F)(F)F)ccc4c3=O)cn12 [Final Cpd X48]	0.398	> 20	–	–
CC(C)c1nn(CC(=O)N[C@@H]2CC[C@H]2O)c(=O)c2ccc(C(F)(F)F)cc12 (single isomer, unassigned) [Final Cpd X149]	6.49	> 20	–	–
CC(C)c1ccc2c(=O)n(CC(=O)Nc3ccc4nncn4n3)nc(C(C)C)c2c1 [X-1009]	0.045	2.83	–	–
